From PubChem BioAssay AID248 (DTP/NCI, 2004)
Toxic doses and inconclusive results are not listed. No stated cut-off is given here; in the data, active means T/C of 150% or more; inactive means T/C below 125%.

System: L1210 leukemia ip in BDF1 mice, survival T/C
Test: NCI In Vivo Anticancer Drug Screen. Data for tumor model L1210 Leukemia (intraperitoneal) in B6D2F1 (BDF1) mice
Details: endpoint: mean survival time, higher = longer survival
How it was run: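 Tumor was transplanted into mice, which were then dosed with test compound or vehicle alone. Survival was recorded for each group, and the treated figure was expressed relative to the control figure.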

[1] = dose: 100.0 mg/kg/injection, schedule: Q04DX003 (ip), vehicle: saline with Tween-80
[2] = dose: 200.0 mg/kg/injection, schedule: Q04DX003 (ip), vehicle: saline with Tween-80
[3] = dose: 400.0 mg/kg/injection, schedule: Q04DX003 (ip), vehicle: saline with Tween-80
[4] = dose: 50.0 mg/kg/injection, schedule: Q04DX003 (ip), vehicle: saline
[5] = dose: 100.0 mg/kg/injection, schedule: Q04DX002 (ip), vehicle: Klucel (hydroxypropylcellulose) (HPC)
[6] = dose: 200.0 mg/kg/injection, schedule: Q04DX002 (ip), vehicle: Klucel (hydroxypropylcellulose) (HPC)
[7] = dose: 400.0 mg/kg/injection, schedule: Q04DX002 (ip), vehicle: Klucel (hydroxypropylcellulose) (HPC)
[8] = dose: 75.0 mg/kg/injection, schedule: Q01DX001 (ip), vehicle: other
[9] = dose: 150.0 mg/kg/injection, schedule: Q01DX001 (ip), vehicle: other
[10] = dose: 50.0 mg/kg/injection, schedule: Q01DX009 (ip), vehicle: saline with Tween-80
[11] = dose: 100.0 mg/kg/injection, schedule: Q01DX009 (ip), vehicle: saline with Tween-80
[12] = dose: 200.0 mg/kg/injection, schedule: Q01DX009 (ip), vehicle: saline with Tween-80
[13] = dose: 100.0 mg/kg/injection, schedule: Q01DX009 (ip), vehicle: saline
[14] = dose: 100.0 mg/kg/injection, schedule: Q04DX003 (ip), vehicle: saline
[15] = dose: 200.0 mg/kg/injection, schedule: Q01DX009 (ip), vehicle: saline
[16] = dose: 200.0 mg/kg/injection, schedule: Q04DX003 (ip), vehicle: saline
[17] = dose: 400.0 mg/kg/injection, schedule: Q01DX009 (ip), vehicle: saline
[18] = dose: 400.0 mg/kg/injection, schedule: Q04DX003 (ip), vehicle: saline
[19] = dose: 50.0 mg/kg/injection, schedule: Q01DX009 (ip), vehicle: Klucel (hydroxypropylcellulose) (HPC)
[20] = dose: 100.0 mg/kg/injection, schedule: Q01DX009 (ip), vehicle: Klucel (hydroxypropylcellulose) (HPC)
[21] = dose: 200.0 mg/kg/injection, schedule: Q01DX009 (ip), vehicle: Klucel (hydroxypropylcellulose) (HPC)
[22] = dose: 100.0 mg/kg/injection, schedule: Q04DX003 (ip), vehicle: Klucel (hydroxypropylcellulose) (HPC)
[23] = dose: 200.0 mg/kg/injection, schedule: Q04DX003 (ip), vehicle: Klucel (hydroxypropylcellulose) (HPC)
[24] = dose: 400.0 mg/kg/injection, schedule: Q01DX009 (ip), vehicle: Klucel (hydroxypropylcellulose) (HPC)
[25] = dose: 400.0 mg/kg/injection, schedule: Q04DX003 (ip), vehicle: Klucel (hydroxypropylcellulose) (HPC)
[26] = dose: 100.0 mg/kg/injection, schedule: Q04DX002 (ip), vehicle: saline with Tween-80
[27] = dose: 200.0 mg/kg/injection, schedule: Q04DX002 (ip), vehicle: saline with Tween-80
[28] = dose: 400.0 mg/kg/injection, schedule: Q04DX002 (ip), vehicle: saline with Tween-80
[29] = dose: 25.0 mg/kg/injection, schedule: Q04DX002 (ip), vehicle: saline
[30] = dose: 50.0 mg/kg/injection, schedule: Q04DX002 (ip), vehicle: saline
[31] = dose: 100.0 mg/kg/injection, schedule: Q04DX002 (ip), vehicle: saline
[32] = dose: 100.0 mg/kg/injection, schedule: Q01DX001 (ip), vehicle: saline with Tween-80
[33] = dose: 200.0 mg/kg/injection, schedule: Q01DX001 (ip), vehicle: saline with Tween-80
[34] = dose: 400.0 mg/kg/injection, schedule: Q01DX001 (ip), vehicle: saline with Tween-80

Measured: T/C

COc1ccc(C(C)N=CC(C)(C)C)cc1 (stereo unspecified)
inactive: [1] 101 % of control | [2] 101 % of control

CCCC(C)C(C#N)C(=O)OCC (stereo unspecified)
inactive: [1] 106 % of control | [2] 101 % of control | [3] 105 % of control

Clc1ccccc1/C=N/Nc1c2ccccc2nc2ccccc12
inactive: dose: 400.0 mg/kg/injection, schedule: Q01DX001 (ip), vehicle: saline 87 % of control

O=C(Nc1ccc(O)cc1)Nc1cccc(C(F)(F)F)c1
inactive: dose: 100.0 mg/kg/injection, schedule: Q01DX009 (ip), vehicle: gum acacia 103 % of control | dose: 200.0 mg/kg/injection, schedule: Q01DX009 (ip), vehicle: gum acacia 106 % of control | dose: 400.0 mg/kg/injection, schedule: Q01DX009 (ip), vehicle: gum acacia 100 % of control

CN1CCC(=C(C#N)c2ccccc2)CC1
inactive: dose: 25.0 mg/kg/injection, schedule: Q04DX003 (ip), vehicle: saline 97 % of control | [4] 97 % of control

COC(OC)c1nc(N)[nH]c(=O)c1Cc1cccc2ccccc12
inactive: [5] 97 % of control | [6] 86 % of control | [7] 105 % of control

OCCN=Cc1ccccc1O.OCCN=Cc1ccccc1O.[Ni]
inactive: [8] 103 % of control | [9] 106 % of control

OCCC=C(c1ccccc1)c1ccccc1
inactive: [10] 107 % of control | [11] 100 % of control | [12] 104 % of control

O=C(O)Cc1cccnc1
inactive: [13] 102 % of control | [14] 101 % of control | [15] 100 % of control | [16] 104 % of control | [17] 89 % of control | [18] 95 % of control

CCOC(=O)c1cnn(C(N)=S)c1N
inactive: [10] 95 % of control | [11] 98 % of control | [1] 102 % of control | [2] 105 % of control | [3] 96 % of control

Cc1cc2c(C)nc3ccccc3n2c1O
inactive: [19] 103 % of control | [20] 103 % of control | [21] 98 % of control

c1ccc(N(c2ccccc2)c2ccccc2)cc1
inactive: [20] 102 % of control | [11] 93 % of control | [22] 91 % of control | [1] 100 % of control | [21] 91 % of control | [12] 95 % of control | [23] 95 % of control | [2] 96 % of control | [24] 98 % of control | dose: 400.0 mg/kg/injection, schedule: Q01DX009 (ip), vehicle: saline with Tween-80 95 % of control | [25] 98 % of control | [3] 90 % of control

CCOC(=O)/C(C#N)=C\c1cccs1
inactive: [22] 103 % of control

c1ccc(COCc2ccc(C3N(c4ccccc4)CCN3c3ccccc3)o2)cc1
inactive: [26] 96 % of control | [27] 96 % of control | [28] 104 % of control

CCC(C)COC(=O)c1ccccc1-c1ccccc1C(=O)OCC(C)CC (stereo unspecified)
inactive: dose: 100.0 mg/kg/injection, schedule: Q01DX001 (ip), vehicle: other 96 % of control | dose: 200.0 mg/kg/injection, schedule: Q01DX001 (ip), vehicle: other 98 % of control | dose: 400.0 mg/kg/injection, schedule: Q01DX001 (ip), vehicle: other 96 % of control

CCC[CH2][Ge]([CH2]CCC)[CH2]CCC.CCC[CH2][Ge]([CH3])[CH2]CCC
inactive: [26] 93 % of control | [27] 89 % of control | [28] 93 % of control

COc1ccc(CC(N)C(=O)N2CC(n3cnc4c(N(C)C)ncnc43)CC2CO)cc1 (stereo unspecified)
inactive: [29] 98 % of control | [30] 119 % of control | [31] 105 % of control

C#CCOCC1CN(C)C(=O)O1 (stereo unspecified)
inactive: dose: 25.0 mg/kg/injection, schedule: Q01DX009 (ip), vehicle: saline 90 % of control | dose: 50.0 mg/kg/injection, schedule: Q01DX009 (ip), vehicle: saline 110 % of control | [4] 103 % of control | [13] 100 % of control | [14] 106 % of control | [15] 117 % of control | [16] 103 % of control | [17] 100 % of control | [18] 92 % of control

Cc1ccc(S(=O)(=O)NN=C(C2=CCCCC2)C2=CCCCC2)cc1
inactive: [14] 94 % of control | [16] 93 % of control | [18] 93 % of control

O=C(/C=C/c1ccco1)c1cccc([N+](=O)[O-])c1
inactive: [32] 97 % of control | [33] 95 % of control | [34] 92 % of control

CCCCSc1ccc2c(cc1=O)C(NC(C)=O)CCc1cc(OC)c(OC)c(OC)c1-2 (stereo unspecified)
inactive: [29] 98 % of control | [30] 98 % of control | [31] 120 % of control

N#CC(C#N)=CN1CCCCCC1
inactive: dose: 6.25 mg/kg/injection, schedule: Q01DX009 (ip), vehicle: saline with Tween-80 93 % of control | dose: 6.25 mg/kg/injection, schedule: Q04DX003 (ip), vehicle: saline with Tween-80 96 % of control | dose: 12.5 mg/kg/injection, schedule: Q01DX009 (ip), vehicle: saline with Tween-80 94 % of control | dose: 12.5 mg/kg/injection, schedule: Q04DX003 (ip), vehicle: saline with Tween-80 92 % of control | dose: 25.0 mg/kg/injection, schedule: Q01DX009 (ip), vehicle: saline with Tween-80 89 % of control | dose: 25.0 mg/kg/injection, schedule: Q04DX003 (ip), vehicle: saline with Tween-80 94 % of control

O=C(CCl)Nc1ccc(O)c2ccccc12
inactive: [8] 102 % of control | [9] 91 % of control

CCCN(CCC#N)C(=S)Nc1ccc(C)c(C)c1
inactive: [5] 94 % of control | [6] 97 % of control | [7] 94 % of control

C=C1CC23CC[C@H]4[C@@](C)(CCC[C@@]4(C)C(=O)OC4OC(CO)C(O)C(O)C4O)[C@@H]2CC[C@@]1(OC1OC(CO)C(O)C(O)C1OC1OC(CO)C(O)C(O)C1O)C3 (stereo partly specified)
inactive: [32] 101 % of control | [33] 93 % of control | [34] 96 % of control

CN=C(N)C(C)Cl (stereo unspecified)
inactive: [31] 106 % of control | dose: 200.0 mg/kg/injection, schedule: Q04DX002 (ip), vehicle: saline 103 % of control | dose: 400.0 mg/kg/injection, schedule: Q04DX002 (ip), vehicle: saline 103 % of control

CC(=O)C1=CN(C(C)(C)C)COC1C (stereo unspecified)
inactive: [19] 104 % of control | [20] 95 % of control | [21] 110 % of control

COc1ccc(CC2(C#N)c3ccccc3C=CN2C(=O)c2ccccc2)c([N+](=O)[O-])c1OC (stereo unspecified)
inactive: dose: 50.0 mg/kg/injection, schedule: Q04DX002 (ip), vehicle: saline with Tween-80 97 % of control | [26] 87 % of control | [27] 97 % of control

CC(=O)Oc1ccc2c(c1)C(=O)CCCC2
inactive: [10] 88 % of control | [11] 88 % of control | [12] 88 % of control

CCN(c1ccccc1)c1ccc(C=O)cc1
inactive: [20] 98 % of control | [22] 97 % of control | [21] 94 % of control | [23] 102 % of control | [24] 93 % of control | [25] 105 % of control

COC(=O)c1ccccc1NC(=O)c1c(-c2ccccc2Cl)noc1C
inactive: [20] 99 % of control | [21] 94 % of control | [24] 98 % of control
